Here are results for two compounds from patent US20250099532A1, “METHODS OF TREATMENT USING OXYTOCIN” (Belnap Pharmaceuticals, LLC, priority 2022, published 2025).

One assay concerns patients. The experiment in a line: Clinical observations in treated patients. It counts as in vivo, human. The source says:
It is imperative that patients get as quickly to the positive zone as possible. […] Anxiety is a major contributor to chronic inflammation, which decreases BDNF and the continued loss of synaptic connections.

In another assay the test system is depression. To be noted: after a single administration; cited from earlier work.

In the case of `CNC1(c2ccccc2Cl)CCCCC1=O` (racemic) [ketamine, Ketamine (racemic)], the “duration of positive effects of a series of infusions” value in the assay with patients (IV ketamine alone, series of infusions (e.g., six)) is “one month to several (e.g., 4-6) months”. Moreover, the “relief of anxiety compared with depression” value in the assay on patients (patients, ketamine treatments alone) is “a lot slower”. In the assay with depression, the “begin of antidepressant effects post-infusion” value is on record as 40 min, the “loss of superiority to placebo post-infusion” value is 10 to 12 days and the “peak of antidepressant effects” value is reported as “approximately 24 h”.

In the case of `CC[C@H](C)[C@@H]1NC(=O)[C@H](Cc2ccc(O)cc2)NC(=O)[C@@H](N)CSSC[C@@H](C(=O)N2CCC[C@H]2C(=O)N[C@@H](CC(C)C)C(=O)NCC(N)=O)NC(=O)[C@H](CC(N)=O)NC(=O)[C@H](CCC(N)=O)NC1=O` [oxytocin], in the assay on patients (Patient 3 (alcoholic), patient attributes it to the addition of oxytocin), the “time the patient continued to stay sober” value was 18 months. Further, the “response of the patient's anxiety with oxytocin compared with ketamine treatment alone” value with patients (Patient 10 (PTSD, Depression, and Anxiety)) is given as “much quicker”. Besides, the “recovery from anxiety compared with ketamine infusions alone” value with patients (patients, addition of oxytocin treatment) is reported as “much quicker recovery”. Also, the “ketamine experience when oxytocin is administered prior to the ketamine treatment” value in the assay on patients (patients, oxytocin before ketamine) is “much more calm and euphoric ketamine experience”. Besides, the “recovery from depression and anxiety compared with ketamine alone” value in the assay with patients (patients, oxytocin prior to ketamine treatment) is “recovering much more quickly”.
